Consider 25 substances from US8969516B2, “Method of hydrolysis of peptide bond” (priority 2006, dated 2015).

The data set is described as follows: MALDI-TOF screening of Ni^2+ dependent hydrolysis in a combinatorial peptide library. It counts as physicochemical. To be noted: CH3CO-Gly-Ala-Thr-X-His-Z-Lys-Phe-Leu-NH2 library, Ni^2+ 2 mM, pH 8.2, 10 mM Tris, score=24/tm. The method, boiled down:
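Ni2+ 2 mM, peptide pool 1 mM (total), 10 mM Tris pH 8.2; 37 °C and 45 °C in parallel; MS aliquots at 2/4/6/8 h; products detected visually. X: all proteinogenic residues except Asp, Glu, Cys; Z: all except Cys.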

With Ac-GATTHNKFL-NH2 [TTHN], the “hydrolysis score from MALDI-TOF screening” value (“hydrolysis score” below) (37° C.) is 0 (a score of 0 if no trace of the product of hydrolysis was seen after 8 hours of incubation) and the “hydrolysis score” value (45° C.) is listed as 0 (a score of 0 if no trace of the product of hydrolysis was seen after 8 hours of incubation).
As for Ac-GATTHPKFL-NH2 [TTHP], the “hydrolysis score” value was 0 (a score of 0 if no trace of the product of hydrolysis was seen after 8 hours of incubation) (37° C.) and 0 (a score of 0 if no trace of the product of hydrolysis was seen after 8 hours of incubation) (45° C.).
With Ac-GATTHQKFL-NH2 [TTHQ], the “hydrolysis score” value reads like this: (37° C.) 0 (a score of 0 if no trace of the product of hydrolysis was seen after 8 hours of incubation); (45° C.) 0 (a score of 0 if no trace of the product of hydrolysis was seen after 8 hours of incubation).
With Ac-GATTHRKFL-NH2 [TTHR], the “hydrolysis score” value by setting is: (37° C.) 0 (a score of 0 if no trace of the product of hydrolysis was seen after 8 hours of incubation); (45° C.) 3 (a score of 3 for detection at 8 hours).
The like results for Ac-GATTHSKFL-NH2 [TTHS] were, in that order, 0 (a score of 0 if no trace of the product of hydrolysis was seen after 8 hours of incubation) and 0 (a score of 0 if no trace of the product of hydrolysis was seen after 8 hours of incubation).
On to Ac-GATTHTKFL-NH2 [TTHT], for which the “hydrolysis score” value is recorded as 0 (a score of 0 if no trace of the product of hydrolysis was seen after 8 hours of incubation) (37° C.) and 0 (a score of 0 if no trace of the product of hydrolysis was seen after 8 hours of incubation) (45° C.).
For the substance Ac-GATTHVKFL-NH2 [TTHV], the “hydrolysis score” value (37° C.) is on record as 0 (a score of 0 if no trace of the product of hydrolysis was seen after 8 hours of incubation) and the “hydrolysis score” value (45° C.) is 0 (a score of 0 if no trace of the product of hydrolysis was seen after 8 hours of incubation).
Turning to Ac-GATTHWKFL-NH2 [TTHW], the “hydrolysis score” value runs as follows: (37° C.) 0 (a score of 0 if no trace of the product of hydrolysis was seen after 8 hours of incubation); (45° C.) 0 (a score of 0 if no trace of the product of hydrolysis was seen after 8 hours of incubation).
As for Ac-GATTHYKFL-NH2 [TTHY], the “hydrolysis score” value by setting is: (37° C.) 0 (a score of 0 if no trace of the product of hydrolysis was seen after 8 hours of incubation); (45° C.) 0 (a score of 0 if no trace of the product of hydrolysis was seen after 8 hours of incubation).
For the substance Ac-GATVHAKFL-NH2 [TVHA], the “hydrolysis score” value is, setting by setting: (37° C.) 0 (a score of 0 if no trace of the product of hydrolysis was seen after 8 hours of incubation); (45° C.) 0 (a score of 0 if no trace of the product of hydrolysis was seen after 8 hours of incubation).
Regarding Ac-GATVHDKFL-NH2 [TVHD], the “hydrolysis score” value is, setting by setting: (37° C.) 0 (a score of 0 if no trace of the product of hydrolysis was seen after 8 hours of incubation); (45° C.) 0 (a score of 0 if no trace of the product of hydrolysis was seen after 8 hours of incubation).
As for Ac-GATVHEKFL-NH2 [TVHE], the “hydrolysis score” value was 0 (a score of 0 if no trace of the product of hydrolysis was seen after 8 hours of incubation) (37° C.) and 0 (a score of 0 if no trace of the product of hydrolysis was seen after 8 hours of incubation) (45° C.).
Consider Ac-GATVHFKFL-NH2 [TVHF], for which the “hydrolysis score” value is, setting by setting: (37° C.) 0 (a score of 0 if no trace of the product of hydrolysis was seen after 8 hours of incubation); (45° C.) 0 (a score of 0 if no trace of the product of hydrolysis was seen after 8 hours of incubation).
Turning to Ac-GATVHGKFL-NH2 [TVHG], the “hydrolysis score” value reads like this: (37° C.) 0 (a score of 0 if no trace of the product of hydrolysis was seen after 8 hours of incubation); (45° C.) 0 (a score of 0 if no trace of the product of hydrolysis was seen after 8 hours of incubation).
Regarding Ac-GATVHHKFL-NH2 [TVHH], the “hydrolysis score” value (37° C.) is reported as 0 (a score of 0 if no trace of the product of hydrolysis was seen after 8 hours of incubation) and the “hydrolysis score” value (45° C.) is on record as 0 (a score of 0 if no trace of the product of hydrolysis was seen after 8 hours of incubation).
For the substance Ac-GATVHIKFL-NH2 [TVHI], the “hydrolysis score” value is given as 0 (a score of 0 if no trace of the product of hydrolysis was seen after 8 hours of incubation) (37° C.) and 0 (a score of 0 if no trace of the product of hydrolysis was seen after 8 hours of incubation) (45° C.).
Consider Ac-GATVHKKFL-NH2 [TVHK], for which the “hydrolysis score” value by setting is: (37° C.) 0 (a score of 0 if no trace of the product of hydrolysis was seen after 8 hours of incubation); (45° C.) 0 (a score of 0 if no trace of the product of hydrolysis was seen after 8 hours of incubation).
Regarding Ac-GATVHLKFL-NH2 [TVHL], the “hydrolysis score” value is listed as 0 (a score of 0 if no trace of the product of hydrolysis was seen after 8 hours of incubation) (37° C.) and 0 (a score of 0 if no trace of the product of hydrolysis was seen after 8 hours of incubation) (45° C.).
For the substance Ac-GATVHMKFL-NH2 [TVHM], the “hydrolysis score” value runs as follows: (37° C.) 0 (a score of 0 if no trace of the product of hydrolysis was seen after 8 hours of incubation); (45° C.) 0 (a score of 0 if no trace of the product of hydrolysis was seen after 8 hours of incubation).
In the case of Ac-GATVHPKFL-NH2 [TVHP], the “hydrolysis score” value (37° C.) is recorded as 0 (a score of 0 if no trace of the product of hydrolysis was seen after 8 hours of incubation) and the “hydrolysis score” value (45° C.) is listed as 0 (a score of 0 if no trace of the product of hydrolysis was seen after 8 hours of incubation).
For Ac-GATVHQKFL-NH2 [TVHQ], the “hydrolysis score” value is listed as 0 (a score of 0 if no trace of the product of hydrolysis was seen after 8 hours of incubation) (37° C.) and 0 (a score of 0 if no trace of the product of hydrolysis was seen after 8 hours of incubation) (45° C.).
For Ac-GATVHRKFL-NH2 [TVHR], the “hydrolysis score” value runs as follows: (37° C.) 0 (a score of 0 if no trace of the product of hydrolysis was seen after 8 hours of incubation); (45° C.) 3 (a score of 3 for detection at 8 hours).
The like results for Ac-GATVHSKFL-NH2 [TVHS] were, in that order, 0 (a score of 0 if no trace of the product of hydrolysis was seen after 8 hours of incubation) and 0 (a score of 0 if no trace of the product of hydrolysis was seen after 8 hours of incubation).
On the same counts, the results for Ac-GATVHVKFL-NH2 [TVHV] are 0 (a score of 0 if no trace of the product of hydrolysis was seen after 8 hours of incubation) and 0 (a score of 0 if no trace of the product of hydrolysis was seen after 8 hours of incubation).
On to Ac-GATVHWKFL-NH2 [TVHW], for which the “hydrolysis score” value runs as follows: (37° C.) 0 (a score of 0 if no trace of the product of hydrolysis was seen after 8 hours of incubation); (45° C.) 3 (a score of 3 for detection at 8 hours).
